Measurements: patent US20190076555A1, “TUMOR TARGETING NANOAGENT FOR IMAGING AND FLUORESCENT GUIDED RESECTION OF TUMORS” (priority 2017, published 2019)
Ends that are not written are not given here.

Assays:
[1] = Absorbance spectra of free and conjugated ICG (600-900 nm); format: physicochemical; details: PBS pH7.4
Method: Absorbance of free and conjugated ICG was measured within a wavelength range of 600-900 nm. Stock solution of free ICG was prepared in DMSO at a concentration of 25 mM and sample was diluted in PBS, pH7.4. FIGS. 3A-3J illustrate absorbance spectra of free and conjugated ICG.

U87 MG glioma cells = assay: Competition with binding of NIA to glioma cells by flow cytometry; set-up: species or system human; details: 5 μM NIA (100%) competed with 125 μM competitor
Method: FIG. 11C illustrates flow cytometry histogram for CTX (not fluorescent) competing with binding of NIA (content 5 μM CTXtot) at various concentrations of competing CTX. The following combinations were tested: PBS no ligand (solid line), NIA+125 μM CTX (dashed line), NIA+50 μM CTX (dotdashed line), NIA+5 μM (longdashed line), and NIA 5 μM (dash-twodotted line). […] The abscissa intercept indicates the maximum level of fluorescence decrease due to competition at extrapolated infinite concentrations of CTX.
The saturation curves in the insets were calculated as average fluorescence intensities as function of overall CTX, (CTXtot), concentrations. […] Each molecule of NIA contains on average 7.75 groups of CTX. […] Since the inhibitors are not fluorescence labeled, the inhibition would be indicated by the reduction of MFI if NIA is the competed ligand.

CC1(C)C(/C=C/C=C/C=C/C=C2\N(CCCCS(=O)(=O)O)c3ccc4ccccc4c3C2(C)C)=[N+](CCCCS(=O)(=O)[O-])c2ccc3ccccc3c21 [free ICG, Indocyanine Green] gave a maximum absorbance wavelength ([1]; high concentration 100 μM ICG) of 695 nm and a maximum absorbance wavelength ([1]; lower concentration 3 μM ICG) of 780 nm.
For “P/LLL(40%): polymalic acid with tri-leucine (40%), not fluorescence labelled competitor (Leu-Leu-Leu; not fully specified)”, the “decrease in mean fluorescence intensity of NIA” value (U87 MG glioma cells) was 41-46%.
